Series [1] has as its target T1, Cytochrome P450 2A6 (Homo sapiens, UniProt P11509). Also: in other assays of this panel Not Active means under 50% inhibition at 10 µM.
T1 sequence (P11509 whole entry): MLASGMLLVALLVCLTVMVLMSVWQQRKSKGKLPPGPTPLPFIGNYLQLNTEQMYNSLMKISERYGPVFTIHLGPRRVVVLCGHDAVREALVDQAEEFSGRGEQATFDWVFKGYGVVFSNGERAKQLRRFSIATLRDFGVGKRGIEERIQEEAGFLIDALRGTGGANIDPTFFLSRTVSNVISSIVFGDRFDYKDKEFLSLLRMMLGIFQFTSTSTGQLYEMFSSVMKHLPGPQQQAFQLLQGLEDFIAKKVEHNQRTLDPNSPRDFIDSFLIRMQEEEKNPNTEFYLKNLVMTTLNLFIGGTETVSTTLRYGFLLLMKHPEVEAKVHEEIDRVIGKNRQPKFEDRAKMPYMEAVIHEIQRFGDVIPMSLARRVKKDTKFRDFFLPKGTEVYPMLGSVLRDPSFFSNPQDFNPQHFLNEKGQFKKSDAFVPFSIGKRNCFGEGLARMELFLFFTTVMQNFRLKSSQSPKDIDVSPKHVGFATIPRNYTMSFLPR
The following applies: bti-tn-5b1-4.

The target in series [2] is T2, Polyunsaturated fatty acid lipoxygenase ALOX15 (Oryctolagus cuniculus, UniProt P12530).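 Also: inhibition of 15-lipoxygenase enzyme activity measured with linoleic acid as the substrate; in other assays of this panel Not Active means under 50% inhibition at 10 µM.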
T2 sequence (P12530 whole entry): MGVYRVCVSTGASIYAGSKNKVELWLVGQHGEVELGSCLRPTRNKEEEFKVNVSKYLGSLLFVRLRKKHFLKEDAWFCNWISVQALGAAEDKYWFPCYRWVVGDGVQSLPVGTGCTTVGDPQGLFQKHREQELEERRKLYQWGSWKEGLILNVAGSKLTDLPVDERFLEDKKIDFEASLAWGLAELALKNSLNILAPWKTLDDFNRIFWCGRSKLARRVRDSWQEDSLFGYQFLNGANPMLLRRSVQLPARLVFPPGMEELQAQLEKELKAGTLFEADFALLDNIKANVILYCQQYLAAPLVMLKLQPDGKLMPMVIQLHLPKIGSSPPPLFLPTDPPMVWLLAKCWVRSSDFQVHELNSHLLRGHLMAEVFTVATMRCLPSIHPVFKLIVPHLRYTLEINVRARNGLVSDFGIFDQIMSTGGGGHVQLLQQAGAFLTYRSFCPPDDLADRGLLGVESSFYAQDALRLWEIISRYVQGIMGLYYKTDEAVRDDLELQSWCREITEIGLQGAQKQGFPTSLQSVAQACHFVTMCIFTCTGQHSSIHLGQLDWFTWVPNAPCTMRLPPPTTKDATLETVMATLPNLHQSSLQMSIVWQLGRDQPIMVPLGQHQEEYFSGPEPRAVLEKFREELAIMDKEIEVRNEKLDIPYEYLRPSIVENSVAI
Kind of series: biochemical. The class given is tissue-based, Reticulocytes.

A short description of series [3]: DRUGMATRIX: Glutamate, Kainate radioligand binding (ligand: [3H] Kainic acid). The class given is cell membranes, Rattus norvegicus, Wistar, Brain, Membrane. The following applies: Not Active = under 50% inhibition at 10 µM.
Series [4] concerns the target T3, Alpha-2C adrenergic receptor (Homo sapiens, UniProt P18825).
T3 sequence (P18825 whole entry): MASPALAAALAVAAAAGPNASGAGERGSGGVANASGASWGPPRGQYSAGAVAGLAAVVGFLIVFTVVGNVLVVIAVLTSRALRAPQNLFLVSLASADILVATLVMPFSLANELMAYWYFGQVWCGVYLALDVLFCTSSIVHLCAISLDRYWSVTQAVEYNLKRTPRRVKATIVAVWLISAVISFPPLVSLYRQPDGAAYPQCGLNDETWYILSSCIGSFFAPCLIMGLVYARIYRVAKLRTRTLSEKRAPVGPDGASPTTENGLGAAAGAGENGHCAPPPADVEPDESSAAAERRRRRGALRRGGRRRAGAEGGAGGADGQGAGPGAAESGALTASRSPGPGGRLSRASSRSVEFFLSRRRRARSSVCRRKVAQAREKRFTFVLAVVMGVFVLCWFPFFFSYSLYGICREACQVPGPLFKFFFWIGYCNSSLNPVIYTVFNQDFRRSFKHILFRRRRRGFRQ
Kind of series: DRUGMATRIX: Adrenergic Alpha-2C radioligand binding (ligand: [3H] MK-912). The class given is cell membranes, Sf9, Membrane.

Series [5] can be described thus: DRUGMATRIX: Calcium Channel Type L, Benzothiazepine radioligand binding (ligand: [3H] Diltiazem). The following applies: Not Active = under 50% inhibition at 10 µM. The class given is cell membranes, Rattus norvegicus, Wistar, Brain, Membrane.
The nature of series [6]: DRUGMATRIX: Serotonin (5-Hydroxytryptamine) 5-HT3 radioligand binding (ligand: [3H] GR-65630). The class given is cell membranes, Membrane. The following applies: hek293; Not Active = under 50% inhibition at 10 µM.

On to `CC(C)NCC(O)c1ccccc1Cl` (stereo unspecified) [CLORPRENALINE], for which the IC50 result in series [1], in series [2] (reticulocytes), in series [3], in series [4] (sf9), in series [5] and in series [6] was “Not Active” in each case. In addition, the Ki entry in series [1], in series [3], in series [5] and in series [6] was “Not Active” in each case.
With `CN1CCN(C(c2ccccc2)c2ccccc2)CC1` [CYCLIZINE], the IC50 entry was “Not Active” in series [1]; “Not Active” in series [2] (reticulocytes); “Not Active” in series [3]; “Not Active” in series [4] (sf9); 2520 nM in series [5] (read-out: IC50); “Not Active” in series [6]. Besides, the Ki entry was “Not Active” in series [1], “Not Active” in series [3], 2240 nM in series [5] (read-out: Ki) and “Not Active” in series [6].
Take `CN1C[C@@H]2C[C@H]1CN2c1cc2c(cc1F)c(=O)c(C(=O)O)cn2C1CC1` [DANOFLOXACIN]: the 50% inhibitory concentration (IC50) entry in series [1], in series [2] (reticulocytes), in series [3], in series [4] (sf9), in series [5] and in series [6] was “Not Active” each time. Further, the Ki result in series [1], in series [3], in series [5] and in series [6] was “Not Active” each time.
With `COc1cccc2c1C(=O)c1c(O)c3c(c(O)c1C2=O)C[C@@](O)(C(C)=O)C[C@@H]3O[C@H]1C[C@H](N)[C@H](O)[C@H](C)O1` [DAUNORUBICIN], the IC50 entry in series [1], in series [2] (reticulocytes), in series [3], in series [4] (sf9), in series [5] and in series [6] was “Not Active” throughout. The Ki result in series [1], in series [3], in series [5] and in series [6] was “Not Active” throughout.
For the compound `O=C(O)c1cc(-c2ccc(F)cc2F)ccc1O` [DIFLUNISAL], the IC50 result in series [1], in series [2] (reticulocytes), in series [3], in series [4] (sf9), in series [5] and in series [6] was “Not Active” throughout. Also, the Ki result in series [1], in series [3], in series [5] and in series [6] was “Not Active” in each case.
In the case of `C[S+](C)[O-]` [DIMETHYL SULFOXIDE], the IC50 entry in series [1], in series [2] (reticulocytes), in series [3], in series [4] (sf9), in series [5] and in series [6] was “Not Active” in each case. Besides, the Ki result in series [1], in series [3], in series [5] and in series [6] was “Not Active” each time.
With `CC1=NN(c2ccccc2)C(=O)C1` [EDARAVONE], the IC50 entry in series [1], in series [2] (reticulocytes), in series [3], in series [4] (sf9), in series [5] and in series [6] was “Not Active” in each case. Further, the Ki entry in series [1], in series [3], in series [5] and in series [6] was “Not Active” each time.
For `CC(C)C[C@H]1C(=O)N2CCC[C@H]2[C@]2(O)O[C@](NC(=O)[C@@H]3C=C4c5cccc6[nH]cc(c56)C[C@H]4N(C)C3)(C(C)C)C(=O)N12` [ERGOCRYPTINE], the IC50 entry is “Not Active” in series [1]; “Not Active” in series [2] (reticulocytes); “Not Active” in series [3]; 38 nM in series [4] (read-out: IC50); “Not Active” in series [5]; “Not Active” in series [6]. Moreover, the inhibition constant Ki result is “Not Active” in series [1]; “Not Active” in series [3]; 5.48 nM in series [4] (read-out: Ki); “Not Active” in series [5]; “Not Active” in series [6].
Turning to `C[C@]12CC[C@@H]3c4ccc(O)cc4CC[C@H]3[C@@H]1C[C@@H](O)[C@@H]2O` [ESTRIOL], the IC50 result in series [1] was “Not Active”; in series [2] (read-out: IC50), 8640 nM; in series [3], “Not Active”; in series [4] (sf9) it was “Not Active”; in series [5], “Not Active”; in series [6], “Not Active”. The Ki result in series [1], in series [3], in series [5] and in series [6] was “Not Active” throughout.
On to `C#C[C@]1(O)CC[C@H]2[C@@H]3CCC4=CC(=O)CC[C@]4(C)[C@H]3CC[C@@]21C` [ETHISTERONE], for which the IC50 result in series [1], in series [2] (reticulocytes), in series [3], in series [4] (sf9), in series [5] and in series [6] was “Not Active” in each case. In addition, the Ki entry in series [1], in series [3], in series [5] and in series [6] was “Not Active” in each case.
On to `CC(O)(P(=O)(O)O)P(=O)(O)O` [ETIDRONIC ACID], for which the IC50 result in series [1], in series [2] (reticulocytes), in series [3], in series [4] (sf9), in series [5] and in series [6] was “Not Active” each time. Further, the Ki result in series [1], in series [3], in series [5] and in series [6] was “Not Active” each time.
Consider `CC(C)(C(=O)O)c1ccc(C(O)CCCN2CCC(C(O)(c3ccccc3)c3ccccc3)CC2)cc1` (stereo unspecified) [FEXOFENADINE], for which the IC50 entry in series [1], in series [2] (reticulocytes), in series [3], in series [4] (sf9), in series [5] and in series [6] was “Not Active” in each case. The Ki entry in series [1], in series [3], in series [5] and in series [6] was “Not Active” each time.
For `CN1CCN(c2c(F)cc3c(=O)c(C(=O)O)cn(CCF)c3c2F)CC1` [FLEROXACIN], the IC50 result in series [1], in series [2] (reticulocytes), in series [3], in series [4] (sf9), in series [5] and in series [6] was “Not Active” throughout. Further, the Ki result in series [1], in series [3], in series [5] and in series [6] was “Not Active” each time.
`O=c1[nH]c(=O)n([C@H]2C[C@H](O)[C@@H](CO)O2)cc1F` [FLOXURIDINE]: the IC50 entry in series [1], in series [2] (reticulocytes), in series [3], in series [4] (sf9), in series [5] and in series [6] was “Not Active” in each case. Moreover, the Ki entry in series [1], in series [3], in series [5] and in series [6] was “Not Active” each time.
As for `COC(=O)Nc1nc2cc(C(=O)c3ccc(F)cc3)ccc2[nH]1` [FLUBENDAZOLE], the IC50 entry in series [1], in series [2] (reticulocytes), in series [3], in series [4] (sf9), in series [5] and in series [6] was “Not Active” throughout. Besides, the Ki result in series [1], in series [3], in series [5] and in series [6] was “Not Active” in each case.

A word on the IC50: it is the concentration that inhibits the measured activity by half. For orientation: Ki means a measure of affinity in units of concentration, obtained from inhibition or displacement.

The values are drawn from ChEMBL document CHEMBL1909046, “DrugMatrix in vitro pharmacology data”.
